Laboratory results as given in EP0583821A1, “Atriopeptins, guanylate cyclase activators, and phosphodiesterase inhibitors as treatment for glaucoma, hydrocephalus and cerebral edema (cranial fluid volume dysfunction)” (THE GENERAL HOSPITAL CORPORATION, priority 1987, dated 1988).

Experiments:
rabbits = experiment: Intraocular pressure and ocular observations after topical (eye drop) application; format: in vivo, rabbit
Procedure: The measurement of intraocular pressure (IOP), was performed using procedures similar to those described in Nathanson, Brit. J. Pharmacol., 73:97 (1981) and Nathanson, Current Eye Res., 4:191 (1985). Briefly, male (3-5 kg), New Zealand white rabbits were housed under standard conditions and exposed to a 12 hr light-dark cycle. IOP was measured with a Perkins applanation tonometer after topical anesthesia with 0.4% benoxinate (and 0.25% sodium fluorescein). The tonometer had been calibrated previously by connecting the anterior chamber of enucleated rabbit eyes to a manometer (and reservoir) and taking tonometer readings at different pressures. A number of preliminary IOP readings were made in order to accommodate the animals to the measurement procedure. Readings were then taken just prior to drug or vehicle injection and at 3, 9, 20, 27, 44, 51, 72, and 144 hours post-injection.
A potent PDE inhibitor of the arylxanthine class, 1,3-dibutylxanthine, was applied unilaterally and topically to rabbit eyes in a 0.5% solution. […] The IOP was decreased 4 mm (Hg) in the ipsilateral eye (Figure 8).
(§1) Again there was about a 4 mm (Hg) decrease in intraocular pressure. […] This xanthine inhibited the enzyme with an IC₅₀ (concentration necessary for 50% enzyme inhibition) of 25 uM.
The effect of nitroglycerine eye drops on rabbit intraocular pressure was also measured. The IOP of 8 conscious, male albino rabbits (3-4 kg) was measured by applanation pnumatonometry after topical anesthesia with 0.4% benoxinate. Nitroglycerine in phosphate buffered saline, pH 7.4, was given unilaterally, in two 25µl drops spaced five minutes apart. Blood pressure and pulse rate were measured by a photoelectric detector using an automated external tail cuff. […] By 24 hours, pressure had returned to normal.

cGMP phosphodiesterase = experiment: Inhibition of cGMP phosphodiesterase in ciliary process; format: biochemical; conditions: Fig. 9B, read-out: IC₅₀ (concentration necessary for 50% enzyme inhibition)
Source text: The ability of any compound to inhibit cGMP phosphodiesterase (PDE) activity in broken-cell preparations of choroid epithelial cells or ciliary process can be determined either 1) by measuring the decrease in rate of hydrolysis of an added amount of cyclic GMP by PDE (see, Methods Section of Nathanson et al., Mol. Pharmacol. 12:390-398 (1975)), or 2) by measuring the rate of accumulation of one of the breakdown products of cyclic GMP, such as 5'-GMP or guanosine (see method of Filburn et al., Anal. Biochem. 52:505-516 (1973)). Both of these are herein incorporated by reference.
as §1

adenylate cyclase = experiment: Adenylate cyclase activity in P1 fractions of whole choroid; format: biochemical, rabbit; conditions: rANP at high concentrations
Procedure: The effect of rANP on membrane-bound guanylate cyclase and adenylate cyclase activity in various brain-barrier tissues and tissue fractions from rabbit was compared with its activity in cerebrum and cerebellum. Guanylate cyclase was measured as the rate of cyclic GMP formation by modifications of the technique of Waldman et al., supra, incorporated herein by reference. Briefly, tissues were homogenized (10 mg wet weight per milliliter) in 50 mM tris-HCl, pH 8.0, 1 mM EDTA, 1 mM dithiothreitol, and 250 mM sucrose and centrifuged at 100,000g to obtain a P1 pellet. Reaction tubes contained (in 0.3 ml), 50 mM tris, pH 7.6, 6 mM MnCl₂, 0.5 mM 3-isobutyl, 1-methylxanthine (IBMX), 10 mM theophylline, 3 mM GTP, hormone (in 0.03 ml containing 2.5 mM ascorbic acid and 0.1% bovine serum albumin), and 0.06 ml of P1 fraction (40 to 60 ug of protein). The reaction (4 minutes at 30°C) was started by addition of GTP and terminated by addition of 0.3 ml of 150 mM sodium acetate (pH 4.0) and boiling for 3 minutes. Cyclic GMP formed was subsequently measured by radioimmunoassay as described in example 6, infra. Under these conditions, guanylate cyclase activity was linear with time and tissue concentration. Adenylate cyclase activity in P1 fractions was measured according to the method described by Nathanson, et al., Science; 204:843 (1979); Mol. Pharmacol. 18:199 (1980), see Figure 1C . […] Neurosci. […]

guanylate cyclase [1] = molecular target: T1, guanylate cyclase (Oryctolagus cuniculus, UniProt G1TXB5); experiment: Atriopeptin-activated guanylate cyclase in kidney membrane (P1) fractions; format: biochemical, rabbit; design: tissues were homogenized (10 mg wet weight per milliliter); from tissue; host or cells: rabbit cerebral microvessels, choroid plexus, kidney, ciliary process, pia-arachnoid, cerebellum; 100,000 g P1 pellet; conditions: mean ± range of duplicate determinations
T1 sequence (G1TXB5 28-1056): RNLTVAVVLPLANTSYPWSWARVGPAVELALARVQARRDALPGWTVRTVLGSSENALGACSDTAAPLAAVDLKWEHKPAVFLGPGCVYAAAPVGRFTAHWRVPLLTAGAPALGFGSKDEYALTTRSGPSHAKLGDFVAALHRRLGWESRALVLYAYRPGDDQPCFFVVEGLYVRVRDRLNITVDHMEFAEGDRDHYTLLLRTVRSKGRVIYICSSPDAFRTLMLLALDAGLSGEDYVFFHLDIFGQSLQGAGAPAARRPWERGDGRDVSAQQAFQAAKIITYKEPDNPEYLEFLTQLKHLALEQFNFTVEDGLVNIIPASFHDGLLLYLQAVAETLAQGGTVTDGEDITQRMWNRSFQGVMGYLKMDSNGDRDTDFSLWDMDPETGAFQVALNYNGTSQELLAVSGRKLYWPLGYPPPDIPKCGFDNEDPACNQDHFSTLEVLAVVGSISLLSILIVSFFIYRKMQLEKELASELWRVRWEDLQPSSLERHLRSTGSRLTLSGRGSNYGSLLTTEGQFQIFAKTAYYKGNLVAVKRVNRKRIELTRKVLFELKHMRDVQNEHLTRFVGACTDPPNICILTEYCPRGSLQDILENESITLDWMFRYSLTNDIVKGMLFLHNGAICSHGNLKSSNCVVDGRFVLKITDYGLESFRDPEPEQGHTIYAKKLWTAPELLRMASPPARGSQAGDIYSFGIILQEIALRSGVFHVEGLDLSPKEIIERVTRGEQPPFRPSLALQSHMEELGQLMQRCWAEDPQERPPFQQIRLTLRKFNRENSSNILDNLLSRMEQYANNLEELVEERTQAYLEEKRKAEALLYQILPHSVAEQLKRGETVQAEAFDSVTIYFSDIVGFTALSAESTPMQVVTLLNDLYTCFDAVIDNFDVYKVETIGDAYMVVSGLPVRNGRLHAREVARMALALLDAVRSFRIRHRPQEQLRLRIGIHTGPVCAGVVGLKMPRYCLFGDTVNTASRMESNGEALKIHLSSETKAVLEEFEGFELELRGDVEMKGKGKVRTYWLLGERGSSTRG
Procedure: The effect of rANP on membrane-bound guanylate cyclase and adenylate cyclase activity in various brain-barrier tissues and tissue fractions from rabbit was compared with its activity in cerebrum and cerebellum. Guanylate cyclase was measured as the rate of cyclic GMP formation by modifications of the technique of Waldman et al., supra, incorporated herein by reference. Briefly, tissues were homogenized (10 mg wet weight per milliliter) in 50 mM tris-HCl, pH 8.0, 1 mM EDTA, 1 mM dithiothreitol, and 250 mM sucrose and centrifuged at 100,000g to obtain a P1 pellet. Reaction tubes contained (in 0.3 ml), 50 mM tris, pH 7.6, 6 mM MnCl₂, 0.5 mM 3-isobutyl, 1-methylxanthine (IBMX), 10 mM theophylline, 3 mM GTP, hormone (in 0.03 ml containing 2.5 mM ascorbic acid and 0.1% bovine serum albumin), and 0.06 ml of P1 fraction (40 to 60 ug of protein). The reaction (4 minutes at 30°C) was started by addition of GTP and terminated by addition of 0.3 ml of 150 mM sodium acetate (pH 4.0) and boiling for 3 minutes. Cyclic GMP formed was subsequently measured by radioimmunoassay as described in example 6, infra. Under these conditions, guanylate cyclase activity was linear with time and tissue concentration. Adenylate cyclase activity in P1 fractions was measured according to the method described by Nathanson, et al., Science; 204:843 (1979); Mol. Pharmacol. 18:199 (1980), see Figure 1C . […] Neurosci. Abstr., 10, 899 (1984); Nathanson, et al., Soc. Neurosci. Abstr., 12, 1257 (1986), incorporated herein by reference, but with a lower concentration (0.025%) of trypsin and a rotating tissue tumbler which allowed cleaner fractionation of epithelial cells from erythrocytes and vascular components.
Ciliary process tips were obtained from male, 3-4 kg, New Zealand white rabbits, immediately following sacrifice with an overdose of ether, as described in Nathanson, Invest. Ophthal. Vis. Sci., 21:7981 (1982). […]
(§2) Atriopeptin-activated guanylate cyclase activity was measured as the rate of conversion of GTP to cyclic GMP. […]

guanylate cyclase [2] = molecular target: T1, guanylate cyclase; experiment: Atriopeptin-activated guanylate cyclase in ciliary process membrane (P1) fractions; format: biochemical, rabbit; design: tissues were homogenized (10 mg wet weight per milliliter); from tissue; host or cells: rabbit cerebral microvessels, choroid plexus, kidney, ciliary process, pia-arachnoid, cerebellum; 100,000 g P1 pellet; conditions: mean ± range of duplicate determinations
Procedure: Ciliary process tips were obtained from male, 3-4 kg, New Zealand white rabbits, immediately following sacrifice with an overdose of ether, as described in Nathanson, Invest. Ophthal. Vis. Sci., 21:7981 (1982). The tissue was minced and homogenized (10 mg/ml) by hand in a glass-glass homogenizer in a buffer consisting of 50 mM Tris HCl, pH 8.0; 1mM EDTA, and 250mM sucrose. The homogenate was diluted 30-fold with buffer and centrifuged at 100,000 x g, to obtain a P1 fraction. The pellet was rehomogenized in the original volume and left on ice until use. P1 fractions were also prepared from wedges of rabbit kidney taken from the same animals. In some experiments, P1 fractions were prepared from iris and from ciliary body, as described in Nathanson, Proc. Natl. Acad. Sci. USA, 77:7420 (1980). Briefly, iris was removed from its attachment to the ciliary body, cleaned of adhering ciliary process tissue, washed, and homogenized as above. The ciliary muscle was cleaned of most remaining ciliary process tissue, freed from the underlying sclera by blunt and sharp dissection, and then washed and homogenized.
as §2
For RIA, each tube contained (in 0.5ml), 50mM sodium acetate buffer (pH 6.2), 2mM EDTA, 1mg/ml bovine serum albumin, 0.1 ml of sample (or diluted sample), 8,000-15,000 cpm (about 5 fmole) of ¹²⁵I succinyl cyclic GMP tyrosine methyl ester, and antibody to bind 25-35% of the label. […] Activation constants (Ka) were determined from dose-response curves utilizing 12-14 data points (6-7 concentrations of hormone, in duplicate), each point representing the mean of triplicate RIA determinations.
Atriopeptin-activated guanylate cyclase activity was measured, as described in Example 5, in membranes from rabbit kidney and ciliary process prepared as in Example 4. […]

guanylate cyclase [3] = experiment: Ciliary process guanylate cyclase activity (Tables 2 and 3); format: biochemical; conditions: Table 3; concentration not given

CCCCn1c(=O)c2[nH]cnc2n(CCCC)c1=O [1,3-dibutylxanthine]
IOP in the contralateral eye (rabbits; 0.5% solution, unilateral topical): small decrease | decrease of IOP in the ipsilateral eye (rabbits; 0.5% solution, unilateral topical, rabbit eyes): 4 mm (Hg)

CC(C)Cn1c(=O)n(C)c(=O)c2[nH]cnc21 [1-methyl-3-isobutyl-xanthine]
decrease in intraocular pressure (rabbits; topical administration, Fig. 9A): ~4 mm (Hg) | IC50 (cGMP phosphodiesterase): 25 µM

CC(C)NCC(O)c1ccc(O)c(O)c1 (stereo not drawn) [isoproterenol]
effect on adenylate cyclase activity (adenylate cyclase): stimulated

rANP 1-11 (SLRRSSCFGGR; Atrial natriuretic peptide; UniProt P01161 123-133, looked up, fragment)
Vmax Stimulation (%) of Guanylate Cyclase Kidney (guanylate cyclase [1]): 25 ± 6% | Vmax Stimulation (%) of Guanylate Cyclase Ciliary Process (guanylate cyclase [2]): 4 ± 6%

sodium nitrate [COMPOUND "N"]
effect on IOP (rabbits; 0.1% eye drop preparation, rabbits): lowers IOP | CILIARY PROCESS GUANYLATE CYCLASE ACTIVITY (Percent Increase) (guanylate cyclase [3]): 46 Percent Increase
